From ChEMBL document CHEMBL1134195, “Synthesis of analogues of the O-beta-D-ribofuranosyl nucleoside moiety of liposidomycins. Part 2: role of the hydroxyl groups upon the inhibition of MraY” (Bioorg Med Chem Lett, 2001) come the findings set out here.

Structures are written as SMILES.

The test in a line: Inhibitory activity against translocase (Mra Y) obtained from bacteria.
As a reminder, the IC50 is the point on the concentration scale where inhibition reaches its midpoint. Low values mean greater potency, high ones weaker potency. `NC[C@H]1O[C@@H](O[C@@H](CO)[C@H]2O[C@@H](n3ccc(=O)[nH]c3=O)[C@H](O)[C@@H]2O)[C@H](O)[C@@H]1O` came in with an IC50 of 5 µM. In other words, the single-digit micromolar range.

The compound `NC[C@@H]1C[C@@H](O)[C@H](OC[C@H]2O[C@@H](n3ccc(=O)[nH]c3=O)[C@H](O)[C@@H]2O)O1` registered an IC50 greater than 1000 µM.

For the compound `NC[C@H]1O[C@@H](OC[C@H]2O[C@@H](n3ccc(=O)[nH]c3=O)C[C@@H]2O)[C@H](O)[C@@H]1O`, inhibition was half-maximal at 80 µM (IC50). This counts as double-digit micromolar.

`NC[C@H]1O[C@@H](OC[C@H]2O[C@@H](n3ccc(=O)[nH]c3=O)[C@H](O)[C@@H]2O)[C@H](O)[C@@H]1O` yielded an IC50 of 50 µM. This IC50 is about 1.6-fold lower than that of the compound before.

Consider `NC[C@H]1O[C@@H](OC[C@H]2O[C@@H](n3ccc(=O)[nH]c3=O)[C@H](O)[C@@H]2O)C[C@@H]1O`, for which the concentration for half-maximal inhibition (IC50) is 115 µM. This IC50 lies about 2.3-fold higher than the previous one.

As for `NC[C@H]1O[C@@H](OC[C@@H]2C[C@@H](O)[C@H](n3ccc(=O)[nH]c3=O)O2)[C@H](O)[C@@H]1O`, the IC50 came to 10 µM.

The compound `NC[C@H]1O[C@@H](OC[C@@H]2CC[C@H](n3ccc(=O)[nH]c3=O)O2)[C@H](O)[C@@H]1O` showed a half-maximal inhibitory concentration (IC50) of 120 µM.
